# In US7417038B1, “Methods of treating cachexia” (Imperial Innovations Limited, priority 1998, dated 2008):
# Counter-ions that a name gives are not always drawn.
# Columns and labels:
# ETA receptor = target: T1, ETA receptor (Homo sapiens, UniProt P25101); details: cited from earlier work; for selectivity for the ETA receptor versus the ETB receptor: ETA vs ETB
# T1 sequence (P25101 21-427): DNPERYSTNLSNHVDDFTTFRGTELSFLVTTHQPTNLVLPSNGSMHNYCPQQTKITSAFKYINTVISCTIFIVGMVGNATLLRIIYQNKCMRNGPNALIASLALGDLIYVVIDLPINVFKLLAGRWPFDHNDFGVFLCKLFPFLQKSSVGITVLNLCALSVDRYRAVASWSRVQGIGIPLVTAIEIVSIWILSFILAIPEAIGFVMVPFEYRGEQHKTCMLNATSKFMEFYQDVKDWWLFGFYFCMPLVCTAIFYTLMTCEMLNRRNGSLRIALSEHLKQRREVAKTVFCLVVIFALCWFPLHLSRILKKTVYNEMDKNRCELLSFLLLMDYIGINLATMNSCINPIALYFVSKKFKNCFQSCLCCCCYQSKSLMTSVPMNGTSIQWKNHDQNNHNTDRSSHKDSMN
# [1] = Treatment of a hypertensive patient with Atenolol (with co-medication): body weight; format: in vivo, human; details: baseline 85.6 kg, Atenolol 50 mgs OD with Losartan, Bendrofluazide, Doxazosin, 11 months
# Description: A hypertensive patient presented weighing 85.6 kg. They were treated with Losartan 50 mgs OD, Bendrofluazide 2-5 mgs OD, Doxazosin 1 mg OD and Atenolol, a β-blocker, 50 mgs OD. In 11 months their weight increased to 94.3 kg.
# [2] = Carvedilol treatment of a cachectic CHF patient: symptom limited treadmill exercise testing; format: in vivo, human; details: one cachectic CHF patient, Carvedilol 3.125 mg to 12.5 mg twice daily, follow-up vs baseline
# [3] = Carvedilol treatment of a cachectic CHF patient: body weight, body composition (bioelectrical impedance), clinical status; format: in vivo, human; details: one cachectic CHF patient
# [4] = target: T2, human cloned ETA receptors (Homo sapiens, UniProt P25101); details: cited from earlier work
# T2 sequence (P25101 21-427): T1 sequence (P25101 21-427)
# [5] = Spironolactone treatment of a cachectic CHF patient: body weight and clinical status; details: one cachectic CHF patient, spironolactone 25 mg once daily
# [6] = Spironolactone treatment of a cachectic CHF patient: symptom limited treadmill exercise testing; format: in vivo, human; details: one cachectic CHF patient, spironolactone 25 mg once daily, follow-up vs baseline
# Description: The patient had good compliance in taking spironolactone.
# Treadmill exercise testing: The patient underwent symptom limited treadmill exercise testing. A standard Bruce protocol was used. The patient breathed through a one-way valve connected to a commercially available respiratory gas analyser (MedGraphics Inc., USA) and minute ventilation and oxygen consumption were recorded on line every 15 seconds. The patient was encouraged to exercise to exhaustion. Exercise time and oxygen consumption at peak exercise adjusted for total body weight (peak VO2 in ml/kg/min) was measured as an index of the exercise capacity. One day prior to the intended baseline exercise test an additional exercise test was performed to familarise the patient with the test procedure.
# [7] = Carvedilol, without development of oedema
# [8] = without development of any oedema
structure (smiles),measurement,setting,value
CCCCN(CCCC)C(=O)CN1C[C@H](c2cc(OC)c3c(c2)OCO3)[C@@H](C(=O)O)[C@@H]1CC(C)(C)CCC [A-216546],selectivity for the ETA receptor versus the ETB receptor,ETA receptor,"> 25,000 fold"
CC(C)NCC(O)COc1ccc(CC(N)=O)cc1 (centres unmarked) [Atenolol],body weight after treatment,[1],94.3 kg
COc1ccccc1OCCNCC(O)COc1cccc2[nH]c3ccccc3c12 (centres unmarked) [Carvedilol],VE/VCO2-slope decrease,[2],15.5%
same,peak VO2 increase,[2],15%
same,tolerability of the treatment,[3]; Carvedilol 3.125 mg to 12.5 mg twice daily,tolerated the treatment well
same,increase in lean muscle tissue,"[3]; Carvedilol 3.125 mg to 12.5 mg twice daily, bioelectrical impedance",1.8 kg
same,body weight increase,[3]; [7],2.1 kg
same,body weight increase (percent),[3]; [7],3.1%
"COc1ccccc1Oc1c(NS(=O)(=O)c2ccc(C)cn2)nc(-c2ccnc(-c3nnn[nH]3)c2)nc1OCCO [Ro 61-1790, 5-methyl-pyridine-2-sulfonic acid 6-(2-hydroxy-ethoxy)-5-(2-methoxy-phenoxy)-2-(2-1H-tetrazol-5-yl-+++pyridin-4-yl)-pyrimidin-4-ylamide]",selectivity for the ETA receptor versus the ETB receptor,ETA receptor,approximately 1000 fold
same,affinity to ETA receptor,ETA receptor; competitive ET antagonist,subnanomolar range
"Cc1ccc(-c2c(NS(=O)(=O)c3ccc(C(C)(C)CO)cc3)ncnc2OCCOc2ncc(Br)cn2)cc1 [T-0201, N-(6-(2-(5-bromopyrimidin-4-yl)-4-(2-hydroxy-1,1-dimethylethyl)-benzensulfonamidesodium salt sesquihydrate]",effect on specific binding of [125I]-ET-1,[4],competitively antagonized the specific binding
CC(=O)S[C@@H]1CC2=CC(=O)CC[C@]2(C)[C@H]2CC[C@@]3(C)[C@@H](CC[C@@]34CCC(=O)O4)[C@H]12 [spironolactone],New York Heart Association functional class (NYHA class) change,[5],class III symptoms to class II symptoms
same,side effects of the treatment,[5],no side effects
same,body weight increase,[5]; [8],1.5 kg
same,body weight increase (percent),[5]; [8],2%
same,exercise time increase,[6],53%
same,peak VO2 increase,[6],79%
